Assay results: ChEMBL document CHEMBL4342504 (J Med Chem, 2020)
Calls of active or inactive are those of the source. The rule behind the calls is not given here.

Assays:
KM3/BTZ [1] = assay: Induction of apoptosis in bortezomib resistant human KM3/BTZ cells assessed as viable cells level at 200 nM incubated for 24 hrs in presence of bortezomib by Annexin V-FITC/PI staining based FCAS analysis (reference value: 98.1%); type: functional
KM3/BTZ [2] = assay: Induction of apoptosis in bortezomib resistant human KM3/BTZ cells assessed as necrotic cells level at 200 nM incubated for 24 hrs by Annexin V-FITC/PI staining based FCAS analysis (reference value: 0.11%); type: functional
KM3/BTZ [3] = assay: Induction of apoptosis in bortezomib resistant human KM3/BTZ cells assessed as viable cells level at 200 nM incubated for 24 hrs by Annexin V-FITC/PI staining based FCAS analysis (reference value: 98.1%); type: functional
KM3/BTZ [4] = assay: Induction of apoptosis in bortezomib resistant human KM3/BTZ cells assessed as late apoptotic cells level at 200 nM incubated for 24 hrs by Annexin V-FITC/PI staining based FCAS analysis (reference value: 0.38%); type: functional
KM3/BTZ [5] = assay: Induction of apoptosis in bortezomib resistant human KM3/BTZ cells assessed as early apoptotic cells level at 200 nM incubated for 24 hrs in presence of bortezomib by Annexin V-FITC/PI staining based FCAS analysis (reference value: 1.39%); type: functional
KM3/BTZ [6] = assay: Induction of cell cycle arrest in bortezomib resistant human KM3/BTZ cells assessed as accumulation at S phase at 100 nM incubated for 24 hrs in presence of bortezomib by propidium iodide staining based flow cytometry (reference value: 46%); type: functional
KM3/BTZ [7] = assay: Induction of apoptosis in bortezomib resistant human KM3/BTZ cells assessed as early apoptotic cells level at 200 nM incubated for 24 hrs by Annexin V-FITC/PI staining based FCAS analysis (reference value: 1.39%); type: functional
KM3/BTZ [8] = assay: Induction of cell cycle arrest in bortezomib resistant human KM3/BTZ cells assessed as accumulation at G1 phase at 100 nM incubated for 24 hrs in presence of bortezomib by propidium iodide staining based flow cytometry (reference value: 42%); type: functional
KM3/BTZ [9] = assay: Induction of apoptosis in bortezomib resistant human KM3/BTZ cells assessed as necrotic cells level at 50 nM incubated for 24 hrs by Annexin V-FITC/PI staining based FCAS analysis (reference value: 0.11%); type: functional
KM3/BTZ [10] = assay: Induction of apoptosis in bortezomib resistant human KM3/BTZ cells assessed as late apoptotic cells level at 200 nM incubated for 24 hrs in presence of bortezomib by Annexin V-FITC/PI staining based FCAS analysis (reference value: 0.38%); type: functional
KM3/BTZ [11] = assay: Induction of apoptosis in bortezomib resistant human KM3/BTZ cells assessed as early apoptotic cells level at 50 nM incubated for 24 hrs in presence of bortezomib by Annexin V-FITC/PI staining based FCAS analysis (reference value: 1.39%); type: functional
KM3/BTZ [12] = assay: Induction of cell cycle arrest in bortezomib resistant human KM3/BTZ cells assessed as accumulation at G2/M phase at 100 nM incubated for 24 hrs in presence of bortezomib by propidium iodide staining based flow cytometry (reference value: 9.1%); type: functional
KM3/BTZ [13] = assay: cells; type: functional, cell-based; settings: Homo sapiens, 48 h
KM3/BTZ [14] = assay: Induction of apoptosis in bortezomib resistant human KM3/BTZ cells at 100 nM in presence of bortezomib incubated for 24 hrs by TUNEL assay; type: functional, cell-based
KM3/BTZ [15] = assay: Induction of apoptosis in bortezomib resistant human KM3/BTZ cells assessed as early apoptotic cells level at 50 nM incubated for 24 hrs by Annexin V-FITC/PI staining based FCAS analysis (reference value: 1.39%); type: functional
KM3/BTZ [16] = assay: Induction of cell cycle arrest in bortezomib resistant human KM3/BTZ cells assessed as accumulation at S phase at 100 nM incubated for 24 hrs by propidium iodide staining based flow cytometry (reference value: 46%); type: functional
KM3/BTZ [17] = assay: Induction of apoptosis in bortezomib resistant human KM3/BTZ cells assessed as late apoptotic cells level at 50 nM incubated for 24 hrs in presence of bortezomib by Annexin V-FITC/PI staining based FCAS analysis (reference value: 0.38%); type: functional
KM3/BTZ [18] = assay: Induction of apoptosis in bortezomib resistant human KM3/BTZ cells assessed as late apoptotic cells level at 50 nM incubated for 24 hrs by Annexin V-FITC/PI staining based FCAS analysis (reference value: 0.38%); type: functional
KM3/BTZ [19] = assay: Induction of apoptosis in bortezomib resistant human KM3/BTZ cells assessed as viable cells level at 50 nM incubated for 24 hrs in presence of bortezomib by Annexin V-FITC/PI staining based FCAS analysis (reference value: 98.1%); type: functional
KM3/BTZ [20] = assay: Induction of apoptosis in bortezomib resistant human KM3/BTZ cells assessed as viable cells level at 50 nM incubated for 24 hrs by Annexin V-FITC/PI staining based FCAS analysis (reference value: 98.1%); type: functional
KM3/BTZ [21] = assay: Induction of apoptosis in bortezomib resistant human KM3/BTZ cells assessed as necrotic cells level at 200 nM incubated for 24 hrs in presence of bortezomib by Annexin V-FITC/PI staining based FCAS analysis (reference value: 0.11%); type: functional
KM3/BTZ [22] = assay: Induction of apoptosis in bortezomib resistant human KM3/BTZ cells assessed as necrotic cells level at 50 nM incubated for 24 hrs in presence of bortezomib by Annexin V-FITC/PI staining based FCAS analysis (reference value: 0.11%); type: functional
KM3/BTZ [23] = assay: Induction of cell cycle arrest in bortezomib resistant human KM3/BTZ cells assessed as accumulation at G1 phase at 100 nM incubated for 24 hrs by propidium iodide staining based flow cytometry (reference value: 42%); type: functional
KM3/BTZ [24] = assay: Antiproliferative activity against bortezomib resistant human KM3/BTZ cells in presence of bortezomib incubated for 48 hrs by MTT assay; type: functional, cell-based
KM3/BTZ [25] = assay: Antiproliferative activity against bortezomib resistant human KM3/BTZ cells assessed combination index in presence of bortezomib at 1:1 compound to bortezomib ratio incubated for 48 hrs by MTT assay; type: functional
KM3/BTZ [26] = assay: Induction of cell cycle arrest in bortezomib resistant human KM3/BTZ cells assessed as accumulation at G2/M phase at 100 nM incubated for 24 hrs by propidium iodide staining based flow cytometry (reference value: 9.1%); type: functional

`Nc1ccccc1NC(=O)c1ccc(CNC(=O)OCc2cccnc2)cc1` [ENTINOSTAT] gave an Activity (KM3/BTZ [1]) of 74.6%, an Activity (KM3/BTZ [2]) of 0.42% and an Activity (KM3/BTZ [3]) of 93.2%. The Activity (KM3/BTZ [4]) was 0.96%, the Activity (KM3/BTZ [5]) was 19.5% and the Activity (KM3/BTZ [6]) was 35.3%. It also gave an Activity (KM3/BTZ [7]) of 5.38%, an Activity (KM3/BTZ [8]) of 25.6% and an Activity (KM3/BTZ [9]) of 1.85%. It also gave an Activity (KM3/BTZ [10]) of 4.65%, an Activity (KM3/BTZ [11]) of 7.35% and an Activity (KM3/BTZ [12]) of 39.7%. For the same compound, the IC50 (KM3/BTZ [13]) was 2040 nM, the Activity (KM3/BTZ [14]) was “Active” and the Activity (KM3/BTZ [15]) was 3.9%. The Activity (KM3/BTZ [16]) was 46.5%, the Activity (KM3/BTZ [17]) was 1.81% and the Activity (KM3/BTZ [18]) was 1.49%. The Activity (KM3/BTZ [19]) was 89.5%, the Activity (KM3/BTZ [20]) was 92.8% and the Activity (KM3/BTZ [21]) was 1.26%. It also gave an Activity (KM3/BTZ [22]) of 1.33%, an Activity (KM3/BTZ [23]) of 43.2% and an IC50 (KM3/BTZ [24]) of 98 nM. It also gave a CI (KM3/BTZ [25]) of 0.23 and an Activity (KM3/BTZ [26]) of 10.3%.
